Results: US12447151B2, “Alkyne derivative, preparation method for same, and uses thereof” (ZHEJIANG HISUN PHARMACEUTICAL CO., LTD., priority 2019, dated 2025)

Key:
[1] = Metabolic stability in liver microsomes; format: in vitro ADME; conditions: human liver microsomes 0.5 mg/mL, 1 μM compound, NADPH 1 mM; read-out: half-life period/(T1/2, min)
Experimental: The test compound was co-incubated with human liver microsomes, and coenzyme NADPH was added to initiate the reaction. At 0, 5, 15, 30 and 60 minutes, 20 μL of incubation solution was taken out and transferred to 200 μL of acetonitrile containing internal standard to stop the reaction. After protein precipitation, centrifugation was performed at 3,700 rpm for 10 minutes and the supernatant was taken. The supernatant was diluted 1:1 with water and analyzed by LC-MS/MS method. According to the elimination half-life of the test compound in the incubation system, the in vitro intrinsic clearance rate was calculated. Midazolam was used as the internal reference compound and incubated for two aliquots in parallel.
The ratio of peak area of the analyte/internal standard (Aanalyte/AIS) was obtained by the instrument. The remaining percentage (% Control) was calculated from the ratio of Aanalyte/AIS in the non-zero time point sample to the zero time point sample. Ln (% Control) versus incubation time was plotted and a linear fit was performed. The clearance constant (k, min^−1), the clearance half-life (T1/2, min) and the in vitro intrinsic clearance rate (CLint, mL·min^−1·mg^−1 proteins) of the test compound were calculated by the following equations.
Cprotein(mg·mL^−1) refers to the concentration of microsomal protein in the incubation system.

recombinant human PI3Kγ = recombinant human PI3Kγ (Homo sapiens (Human), UniProt P48736); assay: Inhibitory activity on PI3K kinase (ADP-Glo Kinase Assay); format: biochemical; conditions: for IC50: ADP-Glo, ATP 10 μM
recombinant human PI3Kγ, sequence (P48736 whole entry): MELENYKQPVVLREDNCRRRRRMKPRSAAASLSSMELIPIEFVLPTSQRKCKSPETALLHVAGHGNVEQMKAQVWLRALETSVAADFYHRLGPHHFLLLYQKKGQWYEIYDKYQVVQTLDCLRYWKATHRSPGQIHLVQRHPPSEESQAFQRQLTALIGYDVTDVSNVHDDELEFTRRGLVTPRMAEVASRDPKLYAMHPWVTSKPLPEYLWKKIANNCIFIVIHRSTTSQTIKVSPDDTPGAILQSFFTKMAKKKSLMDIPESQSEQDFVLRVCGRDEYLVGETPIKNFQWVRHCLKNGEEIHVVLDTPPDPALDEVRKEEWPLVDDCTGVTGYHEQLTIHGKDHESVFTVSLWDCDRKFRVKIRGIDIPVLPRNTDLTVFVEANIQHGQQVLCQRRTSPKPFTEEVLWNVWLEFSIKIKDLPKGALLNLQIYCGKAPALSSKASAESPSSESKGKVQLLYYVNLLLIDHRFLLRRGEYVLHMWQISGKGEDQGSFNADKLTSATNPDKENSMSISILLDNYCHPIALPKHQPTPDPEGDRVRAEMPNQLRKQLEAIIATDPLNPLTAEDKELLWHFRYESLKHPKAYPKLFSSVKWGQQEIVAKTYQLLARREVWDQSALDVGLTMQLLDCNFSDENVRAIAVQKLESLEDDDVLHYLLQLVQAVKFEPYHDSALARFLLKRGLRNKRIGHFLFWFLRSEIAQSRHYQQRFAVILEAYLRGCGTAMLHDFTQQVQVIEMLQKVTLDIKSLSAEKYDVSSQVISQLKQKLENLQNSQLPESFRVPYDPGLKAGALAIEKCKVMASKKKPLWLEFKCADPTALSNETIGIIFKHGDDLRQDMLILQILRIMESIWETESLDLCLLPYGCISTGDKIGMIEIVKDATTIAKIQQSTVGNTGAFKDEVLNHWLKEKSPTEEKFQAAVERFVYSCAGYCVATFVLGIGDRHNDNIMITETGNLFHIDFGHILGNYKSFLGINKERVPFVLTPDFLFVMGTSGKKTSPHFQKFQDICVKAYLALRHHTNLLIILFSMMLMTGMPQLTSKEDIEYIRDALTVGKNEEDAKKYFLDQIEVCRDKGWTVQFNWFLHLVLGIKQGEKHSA
Source text: The following method is used to determine the degree of inhibition of recombinant human PI3Kα, PI3Kβ, PI3Kγ and PI3Kδ kinase activity by the compounds of the present invention under in vitro conditions. Promega's ADP-Glo Kinase Assay Kit (Cat. No. V9102) was used in this method. The above kit was a luminescence kinase detection kit, which was used to detect the ADP content produced by the kinase reaction. The ADP content was positively correlated with the kinase activity. By measuring the ADP content, the inhibition of the compound on the activity of PI3Kα, PI3Kβ, PI3Kγ and PI3Kδ kinases was reflected. For detailed experimental operations, please refer to the kit instructions. Recombinant human PI3Kα, PI3Kγ, and PI3Kδ were purchased from Invitrogen, and PI3Kβ was purchased from Promega (category numbers were PI3Kα: PV4788; PI3Kβ: V1751; PI3Kγ: PV4786 and PI3Kδ: PV6451 separately).

recombinant human PI3Kβ = recombinant human PI3Kβ (Homo sapiens (Human), UniProt P42338); assay: as above
recombinant human PI3Kβ, sequence (P42338 whole entry): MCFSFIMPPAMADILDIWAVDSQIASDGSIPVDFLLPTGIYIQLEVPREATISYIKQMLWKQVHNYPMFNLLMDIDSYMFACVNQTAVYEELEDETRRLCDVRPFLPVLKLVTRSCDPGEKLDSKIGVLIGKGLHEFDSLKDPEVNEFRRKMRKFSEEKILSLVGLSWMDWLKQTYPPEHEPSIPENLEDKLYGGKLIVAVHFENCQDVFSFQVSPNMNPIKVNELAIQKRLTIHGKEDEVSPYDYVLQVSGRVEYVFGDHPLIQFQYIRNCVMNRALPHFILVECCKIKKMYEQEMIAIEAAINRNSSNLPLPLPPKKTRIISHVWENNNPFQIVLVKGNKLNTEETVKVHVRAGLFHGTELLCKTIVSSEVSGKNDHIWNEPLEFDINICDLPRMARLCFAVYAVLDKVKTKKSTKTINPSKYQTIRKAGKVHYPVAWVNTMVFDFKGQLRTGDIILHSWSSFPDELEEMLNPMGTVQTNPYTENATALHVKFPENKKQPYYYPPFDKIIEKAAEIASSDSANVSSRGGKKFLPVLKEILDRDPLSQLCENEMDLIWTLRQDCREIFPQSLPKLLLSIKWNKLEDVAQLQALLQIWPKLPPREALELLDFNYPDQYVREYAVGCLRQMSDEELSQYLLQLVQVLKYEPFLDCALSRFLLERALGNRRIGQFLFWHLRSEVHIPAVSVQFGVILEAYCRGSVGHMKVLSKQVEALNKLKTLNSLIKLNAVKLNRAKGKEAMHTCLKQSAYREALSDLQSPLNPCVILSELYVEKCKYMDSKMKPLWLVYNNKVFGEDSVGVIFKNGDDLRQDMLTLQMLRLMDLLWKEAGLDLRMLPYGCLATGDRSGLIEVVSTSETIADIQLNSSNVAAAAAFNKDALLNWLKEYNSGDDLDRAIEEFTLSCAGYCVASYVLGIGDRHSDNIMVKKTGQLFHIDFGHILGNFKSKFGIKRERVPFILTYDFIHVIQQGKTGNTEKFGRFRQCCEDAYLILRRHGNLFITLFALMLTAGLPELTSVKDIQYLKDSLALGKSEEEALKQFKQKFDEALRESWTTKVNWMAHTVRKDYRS
recombinant human PI3Kβ, sequence (P27986 whole entry partner): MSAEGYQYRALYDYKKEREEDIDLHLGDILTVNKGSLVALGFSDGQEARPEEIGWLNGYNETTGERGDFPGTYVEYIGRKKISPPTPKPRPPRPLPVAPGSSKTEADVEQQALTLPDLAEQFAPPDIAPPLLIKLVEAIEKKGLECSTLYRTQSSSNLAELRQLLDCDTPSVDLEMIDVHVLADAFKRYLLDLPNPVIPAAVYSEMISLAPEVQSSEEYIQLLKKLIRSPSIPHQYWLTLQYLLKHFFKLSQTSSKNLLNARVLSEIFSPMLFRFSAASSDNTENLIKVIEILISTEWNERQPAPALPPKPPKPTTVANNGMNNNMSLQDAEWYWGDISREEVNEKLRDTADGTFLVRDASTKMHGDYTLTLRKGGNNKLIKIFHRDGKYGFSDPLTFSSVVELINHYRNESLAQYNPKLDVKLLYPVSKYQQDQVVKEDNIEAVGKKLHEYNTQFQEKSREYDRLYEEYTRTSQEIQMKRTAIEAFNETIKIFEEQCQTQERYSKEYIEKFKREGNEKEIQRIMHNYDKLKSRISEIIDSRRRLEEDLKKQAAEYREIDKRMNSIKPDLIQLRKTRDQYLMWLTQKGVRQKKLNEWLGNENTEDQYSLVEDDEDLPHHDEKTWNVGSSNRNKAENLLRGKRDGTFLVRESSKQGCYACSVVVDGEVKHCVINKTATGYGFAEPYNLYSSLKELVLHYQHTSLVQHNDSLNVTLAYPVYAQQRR
Source text: (§2) The following method is used to determine the degree of inhibition of recombinant human PI3Kα, PI3Kβ, PI3Kγ and PI3Kδ kinase activity by the compounds of the present invention under in vitro conditions. Promega's ADP-Glo Kinase Assay Kit (Cat. No. V9102) was used in this method. The above kit was a luminescence kinase detection kit, which was used to detect the ADP content produced by the kinase reaction. The ADP content was positively correlated with the kinase activity. By measuring the ADP content, the inhibition of the compound on the activity of PI3Kα, PI3Kβ, PI3Kγ and PI3Kδ kinases was reflected. […] Recombinant human PI3Kα, PI3Kγ, and PI3Kδ were purchased from Invitrogen, and PI3Kβ was purchased from Promega (category numbers were PI3Kα: PV4788; PI3Kβ: V1751; PI3Kγ: PV4786 and PI3Kδ: PV6451 separately).

recombinant human PI3Kδ = recombinant human PI3Kδ (Homo sapiens (Human), UniProt O00329); assay: as above
recombinant human PI3Kδ, sequence (O00329 whole entry): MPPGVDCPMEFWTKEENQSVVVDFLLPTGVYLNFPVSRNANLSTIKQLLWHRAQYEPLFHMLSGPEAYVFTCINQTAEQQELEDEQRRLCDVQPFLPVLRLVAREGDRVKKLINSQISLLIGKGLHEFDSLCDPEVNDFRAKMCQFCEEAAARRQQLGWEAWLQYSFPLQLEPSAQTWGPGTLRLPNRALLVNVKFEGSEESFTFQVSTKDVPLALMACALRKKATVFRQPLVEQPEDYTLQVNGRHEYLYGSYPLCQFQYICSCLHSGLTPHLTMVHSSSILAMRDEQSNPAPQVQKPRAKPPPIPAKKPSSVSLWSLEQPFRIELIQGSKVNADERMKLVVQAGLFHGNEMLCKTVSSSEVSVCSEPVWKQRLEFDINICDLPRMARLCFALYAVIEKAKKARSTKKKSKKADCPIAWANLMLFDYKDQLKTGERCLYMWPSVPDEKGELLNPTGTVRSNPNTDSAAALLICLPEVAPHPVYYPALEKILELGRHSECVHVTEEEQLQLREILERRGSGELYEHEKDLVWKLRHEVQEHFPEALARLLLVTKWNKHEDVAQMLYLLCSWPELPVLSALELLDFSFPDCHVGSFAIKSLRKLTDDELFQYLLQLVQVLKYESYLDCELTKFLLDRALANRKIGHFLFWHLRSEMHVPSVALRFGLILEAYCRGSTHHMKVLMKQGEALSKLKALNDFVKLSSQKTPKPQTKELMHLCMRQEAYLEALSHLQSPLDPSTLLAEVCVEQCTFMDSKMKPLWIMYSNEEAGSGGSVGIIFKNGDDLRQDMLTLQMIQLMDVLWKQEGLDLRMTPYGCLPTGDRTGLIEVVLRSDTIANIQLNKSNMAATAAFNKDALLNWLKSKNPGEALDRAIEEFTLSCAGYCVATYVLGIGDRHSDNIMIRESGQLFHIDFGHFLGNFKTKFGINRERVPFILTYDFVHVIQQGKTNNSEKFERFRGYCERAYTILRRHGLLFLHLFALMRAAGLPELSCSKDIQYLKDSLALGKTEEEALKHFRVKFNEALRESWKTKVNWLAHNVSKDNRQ
recombinant human PI3Kδ, sequence (P27986 whole entry partner): as the sequence (P27986 whole entry partner) above
Source text: as §2

recombinant human PI3Kα = recombinant human PI3Kα (Homo sapiens (Human), UniProt P42336); assay: as above
recombinant human PI3Kα, sequence (P42336 whole entry): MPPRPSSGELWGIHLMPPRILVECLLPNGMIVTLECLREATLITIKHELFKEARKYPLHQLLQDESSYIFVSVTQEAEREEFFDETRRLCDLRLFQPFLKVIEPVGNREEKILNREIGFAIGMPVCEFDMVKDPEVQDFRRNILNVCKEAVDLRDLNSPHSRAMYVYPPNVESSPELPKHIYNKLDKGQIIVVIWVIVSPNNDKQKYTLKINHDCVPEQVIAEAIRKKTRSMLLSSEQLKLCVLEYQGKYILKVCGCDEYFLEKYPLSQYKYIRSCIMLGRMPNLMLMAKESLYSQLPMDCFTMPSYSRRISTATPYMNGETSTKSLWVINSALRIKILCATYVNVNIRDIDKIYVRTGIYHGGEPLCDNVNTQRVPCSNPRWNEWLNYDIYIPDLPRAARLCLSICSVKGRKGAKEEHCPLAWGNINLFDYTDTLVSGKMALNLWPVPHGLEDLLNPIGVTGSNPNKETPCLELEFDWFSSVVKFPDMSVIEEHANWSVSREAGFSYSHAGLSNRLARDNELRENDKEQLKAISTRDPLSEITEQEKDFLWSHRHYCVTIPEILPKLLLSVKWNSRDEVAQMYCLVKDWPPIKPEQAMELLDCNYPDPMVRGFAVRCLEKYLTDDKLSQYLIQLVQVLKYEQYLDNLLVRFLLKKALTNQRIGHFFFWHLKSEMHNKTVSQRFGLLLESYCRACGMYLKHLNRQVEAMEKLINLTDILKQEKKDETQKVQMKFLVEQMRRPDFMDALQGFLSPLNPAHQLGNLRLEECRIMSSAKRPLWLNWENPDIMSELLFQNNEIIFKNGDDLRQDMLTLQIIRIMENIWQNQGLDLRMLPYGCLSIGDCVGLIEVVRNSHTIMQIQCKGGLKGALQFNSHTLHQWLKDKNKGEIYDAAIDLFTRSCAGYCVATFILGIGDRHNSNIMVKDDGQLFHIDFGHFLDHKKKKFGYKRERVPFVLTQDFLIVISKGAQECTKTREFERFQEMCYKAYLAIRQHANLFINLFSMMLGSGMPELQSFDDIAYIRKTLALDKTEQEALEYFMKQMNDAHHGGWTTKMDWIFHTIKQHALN
recombinant human PI3Kα, sequence (P27986 whole entry partner): as the sequence (P27986 whole entry partner) above
Source text: as §2

[2] = Oral pharmacokinetics in SD rats; format: in vivo; conditions: male, rat, plasma, Oral (5 mg/kg); for AUC(0-inf): read-out: Area under the curve AUC0-∞; for bioavailability: read-out: Bioavailability F; for half-life: read-out: Half-life period T1/2 (converted); for Cmax: read-out: Plasma concentration Cmax
Experimental: Using SD rats as test animals, the rats were intragastrically administrated with the compound of the present invention. LC/MS/MS method was used to determine the drug concentration in the plasma at different times to study the pharmacokinetic characteristics of the compound of the present invention in rats.
(§1) An appropriate amount of the compound to be tested was weighed, and 0.5% sodium carboxymethylcellulose (containing 0.05% Tween80) was added. The mixture was vortexed, and sonicated so that the solid was ultrasonically dispersed uniformly to obtain a suspension. 100 μL×2 of the filtered preparation were aspirated, and placed in 1.5-mL EP tubes, stored at 2 of 8° C. The concentration of the preparation was 0.5 mg/mL.
Nine healthy adult male SD rats were fasted overnight and then intragastrically administered (dosage of administration was 5 mg/kg), and fed 4 hours after administration.
About 0.2 mL of blood was collected from the jugular vein at 0.083 hours, 0.25 hours, 0.5 hours, 1 hour, 2 hours, 4 hours, 8 hours, 12 hours, and 24 hours after administration, and heparin sodium was used for anticoagulation. The collected blood samples were placed on ice and centrifuged to separate the plasma (centrifugation conditions: 1500 g, 10 minutes). The collected plasma was stored at −40 to −20° C. before analysis. The LC-MS/MS method was used to determine the content of the test compound in the plasma of SD rats after intragastric administration of different compounds.

[3] = Oral pharmacokinetics in ICR mice; format: in vivo; conditions: male, mouse, plasma, Oral (5 mg/kg); for AUC(0-inf): read-out: Area under the curve AUC0-∞; for bioavailability: read-out: Bioavailability F; for Cmax: read-out: Plasma concentration Cmax
Experimental: Using ICR mice as the test animals, the mice were intragastrically administrated with the compound of the present invention. LC/MS/MS method was used to determine the drug concentration in the plasma at different times to study the pharmacokinetic characteristics of the compound of the present invention in mice.
as §1, with “obtain a suspension; 100 μL×2” for “obtain a suspension. 100 μL×2”, “of the preparation were” for “of the filtered preparation were”, “at 2 to 8° C.” for “at 2 of 8° C.”
Twenty-seven healthy adult ICR male mice were fasted overnight and then intragastrically administered (dosage of administration was 5 mg/kg), and fed 4 hours after administration.
At 0.083 hours, 0.25 hours, 0.5 hours, 1 hour, 2 hours, 4 hours, 8 hours, 12 hours, and 24 hours after administration, 80 μL of blood was collected from the orbital vein. About 0.08 mL of blood was collected, and placed in EDTA-K2 anticoagulation tube. […] The collected plasma was stored at −40 to −20° C. before analysis. The […] method was used to determine the content of the test compound in the plasma of ICR mice after intragastric administration of different compounds.

Row | SMILES | half-life at 1 μM [1] [min] | IC50 (recombinant human PI3Kγ) [nM] | IC50 (PI3Kα)/IC50(PI3Kγ) (recombinant human PI3Kγ; kinase selectivity for PI3Kγ over PI3Kα) | IC50 (PI3Kβ)/IC50(PI3Kγ) (recombinant human PI3Kγ; kinase selectivity for PI3Kγ over PI3Kβ) | IC50 (PI3Kδ)/IC50(PI3Kγ) (recombinant human PI3Kγ; kinase selectivity for PI3Kγ over PI3Kδ) | IC50 (recombinant human PI3Kβ) [nM] | IC50 (recombinant human PI3Kδ) [nM] | IC50 (recombinant human PI3Kα) [nM] | AUC(0-inf) [2] [ng·h/mL] | bioavailability [2] [%] | half-life [2] [h] | Cmax [2] [ng/mL] | AUC(0-inf) [3] [ng·h/mL] | bioavailability [3] [%] | half-life ([3]; read-out: Half-life period T½ (converted)) [h] | Cmax [3] [ng/mL]
1 | C[C@H](NC(=O)c1c(N)nn2cccnc12)c1nc2cccc(C#Cc3cnn(C)c3)c2c(=O)n1-c1ccccc1 [Compound 21 in WO2015051244A1, reference compound] | 113 | – | – | – | – | – | – | – | – | – | – | – | – | – | – | –
2 | C[C@H](NC(=O)c1c(N)nn2cccnc12)c1cc2cccc(C#Cc3cnn(C4CC4)c3)c2c(=O)n1-c1ccccc1 [Example 1, (S)-2-amino-N-(1-(8-((1-cyclopropyl-1H-pyrazol-4-yl)ethynyl)-1-oxo-2-phenyl-1,2-dihydroisoquinolin-3-yl)ethyl)pyrazolo[1,5-a]pyrimidine-3-carboxamide] | 11700 | 0.46 | 220 | 515 | 1002 | 237 | 461 | 101 | 3940 | 27 | 5.1 | 587 | 7470 | 33 | 3.1 | 898
3 | C[C@H](NC(=O)c1c(N)nn2cccnc12)c1nc2ccc(F)c(C#Cc3cnn(C4CC4)c3)c2c(=O)n1-c1ccccc1 [Example 3, (S)-2-amino-N-(1-(5-((1-cyclopropyl-1H-pyrazol-4-yl)ethynyl)-6-fluoro-4-oxo-3-phenyl-3,4-dihydroquinazolin-2-yl)ethyl)pyrazolo[1,5-a]pyrimidine-3-carboxamide] | 574 | 0.7 | – | – | – | 552 | 195 | 143 | – | – | – | – | – | – | – | –
4 | C[C@H](NC(=O)c1c(N)nn2cccnc12)c1cc2cccc(C#Cc3cnn(C)c3)c2c(=O)n1-c1ccccc1 [IPI-549, reference compound] | 195 | – | – | – | – | – | – | – | 1950 | 10 | 2.4 | 358 | 2660 | 20 | – | 484
